Test results as given in US20200170254A1, “OXADIAZOLINE COMPOUND AND FORMULATION FOR CONTROLLING HARMFUL ORGANISMS” (Nippon Soda Co., Ltd., priority 2017, published 2020).

Key:
Type in all cases: in vivo
Thrips palmi = test: Efficacy test against Thrips palmi, spray on cucumber seedlings (Test Example 3); conditions: 168 h, sprayed on cucumber seedlings, 7 days after spraying, read-out: controlling rate
Method: (§1) 5 parts of the compound of the present invention, 93.6 parts of dimethylformamide and 1.4 parts of polyoxyethylene alkyl aryl ether were mixed and dissolved to prepare Emulsion (I) including 5% of an active ingredient. For the control, Emulsion (II) was prepared by mixing and dissolving 93.6 parts of dimethylformamide and 1.4 parts of polyoxyethylene alkyl aryl ether.
Cucumber seedlings were inoculated with 8 adults of Thrips palmi. Emulsion (I) was diluted with water so that the concentration of the compound of the present invention was 125 ppm. Subsequently, the aforementioned diluted liquid was sprayed on the cucumber seedlings, and then air dried. The number of the parasitic larvae was counted 7 days after spraying. The efficacy of the compounds was evaluated by the controlling rate described below.
Controlling rate (%)={1−(Nt)/(Nc)}×100
In which Nt: number of parasites at the legion spray-treated. • Nc: number of parasites at the legion non-treated (control).

Mythimna separata = test: Efficacy test against Mythimna separata (Test Example 1); conditions: 144 h, corn leaves soaked, second-instar larvae, 6 days after inoculation, read-out: Insect mortality rate
Method: as §1
(§2) An insect mortality rate was calculated by the numerical equation shown below.
(§3) Insect mortality rate (%)={(Number of dead insects)/(Number of sample insects)}×100
(Test Example 1) Efficacy Test against Mythimna separata Emulsion (I) was diluted with water so that the concentration of the compound of the present invention was 125 ppm. Corn leaves were soaked in the diluted liquid for 30 seconds. Subsequently, the corn leaves were put on Petri dishes, followed by inoculating 5 second-instar larvae of Mythimna separata. The Petri dishes were placed in a thermostatic chamber at a temperature of 25° C. and humidity of 60%. Mortality was investigated 6 days after inoculation, and the insect mortality rate was calculated.

Aphis gossypii = test: Efficacy test against Aphis gossypii (Test Example 2); conditions: 144 h, sprayed on cucumber plants with nymphs, 6 days after spraying, read-out: Insect mortality rate
Method: as §1, §2, §3
Cucumber seedlings were inoculated with nymphs of Aphis gossypii. Emulsion (I) was diluted with water so that the concentration of the compound of the present invention was 125 ppm. Subsequently, the aforementioned diluted liquid was sprayed on the cucumber plants on which the nymphs of Aphis gossypii were parasitic. The aforementioned cucumber plants were then placed in a thermostatic chamber with a temperature of 25° C. and humidity of 60%. Mortality was investigated 6 days after spraying was carried out, and the insect mortality rate of Aphis gossypii was calculated.

| Compound | pest or weed control at 125 ppm (Thrips palmi) [%] | mortality at 125 ppm (Mythimna separata) [%] | mortality at 125 ppm (Aphis gossypii) [%] |
| --- | --- | --- | --- |
| Cc1cc2c(s1)CCc1ccccc1C21N=C(NC(C)(C)C)N(C)O1 (stereo not drawn) [a-31] | ≥ 80 | – | – |
| CN1OC2(N=C1N(C)C(C)(C)C)c1ccccc1CCc1sccc12 (stereo not drawn) [a-36] | ≥ 80 | – | – |
| CN1OC2(N=C1NC(C)(C)C)c1ccccc1C=Cc1ccccc12 [a-19] | – | ≥ 80 | – |
| CN1OC2(N=C1NC(C)(C)C)c1ccccc1CCCc1ccccc12 [Compound A-1] | – | – | ≥ 80 |
| CC(C)(C)NC1=NC2(CCc3ccccc32)ON1N (stereo not drawn) [a-24] | – | – | ≥ 80 |
| CCN(C1=NC2(ON1N)c1ccccc1CCc1sc(Cl)cc12)C(C)(C)C (stereo not drawn) [a-38] | ≥ 80 | – | – |
| CCN(C1=NC2(ON1C)c1ccccc1COc1ccccc12)C(C)(C)C (stereo not drawn) [a-10] | ≥ 80 | ≥ 80 | ≥ 80 |
| CN1OC2(Cc3ccccc3Oc3ccccc32)N=C1NC(C)(C)C (stereo not drawn) [a-22, N-(tert-butyl)-2′-methyl-2′H, 11H-spiro[dibenzo[b,f]oxepine-10,5′-[1,2,4]oxadiazol]-3′-amine] | ≥ 80 | – | – |
| CN1OC2(N=C1NC(C)(C)C)c1ccccc1COc1ccccc12 (stereo not drawn) [a-11, N-(tert-butyl)-2′-methyl-2′H,6H-spiro[dibenzo[b,e]oxepine-11,5′-[1,2,4]oxadiazol]-3′-amine] | ≥ 80 | ≥ 80 | – |
| CN1OC2(CC(c3ccccc3)c3ccccc32)N=C1NC(C)(C)C (stereo not drawn) [a-25] | ≥ 80 | ≥ 80 | ≥ 80 |
| CCN(C1=NC2(ON1N)c1ccccc1C=Cc1ccccc12)C(C)(C)C [a-18] | – | ≥ 80 | – |
| CC1CCOc2cc(Cl)ccc2C12N=C(NC(C)(C)C)N(N)O2 (stereo not drawn) [a-30] | – | ≥ 80 | – |
| CN(C1=NC2(ON1N)c1ccccc1CCc1ccccc12)C(C)(C)C [a-35] | ≥ 80 | – | – |
| CN1OC2(CC(C)(C)Oc3ccc(F)cc32)N=C1NC(C)(C)C (stereo not drawn) [a-20, N-(tert-butyl)-6-fluoro-2,2,2′-trimethyl-2′H-spiro [chromane-4,5′-[1,2,4]oxadiazol]-3′-amine] | – | ≥ 80 | ≥ 80 |
| CN1OC2(N=C1N(C)C(C)(C)C)c1ccccc1CCc1sc(Cl)cc12 (stereo not drawn) [a-37] | ≥ 80 | – | – |
| CN1OC2(N=C1N(C)C(C)(C)C)c1ccccc1C=Cc1ccccc12 [a-17] | ≥ 80 | – | – |
| CN1OC2(N=C1N(C)C(C)(C)C)c1ccccc1COc1ccccc12 (stereo not drawn) [a-23] | ≥ 80 | – | – |
| CC(C)(C)NC1=NC2(CCCc3ccccc32)ON1N (stereo not drawn) [a-21] | – | – | ≥ 80 |
| CN1OC2(CCCOc3ccccc32)N=C1NC(C)(C)C (stereo not drawn) [a-26] | – | – | ≥ 80 |
| CN1OC2(N=C1NC(C)(C)C)c1ccc(Cl)cc1OCCC2c1ccccc1 (stereo not drawn) [a-29] | – | ≥ 80 | – |
| CN1OC2(N=C1N(C)C(C)(C)C)c1ccccc1CCCc1ccccc12 [Compound A-2] | – | – | ≥ 80 |
